pIC50: −log10 of the molar value.
Key:
TBK1 = TBK1 (Homo sapiens (Human), UniProt Q9UHD2); assay: TBK Biochemical Assay
Experimental: Example 106: TBK Biochemical Assay Test compounds were transferred into Labcyte polypropylene 384 well plates ([…]-25) and diluted to 3 mM using DMSO. 3 mM test compounds were dispensed using Labcyte ECHO dose response module into Greiner 784075 plates (columns 3-12 and 13-22, 10 point 1:4) so that high concentration was 30 uM final. 100 uM of a reference compound (1 uM final high concentration). Backfilling was performed if necessary so that all wells contain 1% DMSO final: add 75 nl DMSO/well into columns 1, 2 and 24 using Labcyte Echo. add 75 nl 1.0 mM staurosporine/well into column 23 using Labcyte Echo (10 uM final) add 4.5 ul enzyme/well using multidrop dispenser add 3 ul substrate/well using multidrop dispenser incubate at 25° C. in Heidolph incubator for 90 min. add 7.5 ul 2× stop buffer using multidrop dispenser read on labchip ez reader II using TBK1.job Raw data files were opened in the Caliper LabChip Reviewer program (Version 3.0.265.0 SP2) and peak assignments were adjusted to reflect “substrate first” with the software's post-run analysis options. A spline-fit baseline was applied using the software's analysis algorithm.

IKKe = IKKe (Homo sapiens (Human), UniProt Q14164); assay: IKKe Biochemical Assay
Experimental: IKKe Biochemical Assay Test compounds were transferred into Labcyte polypropylene 384 well plates ([…]-25) and diluted to 3 mM using DMSO. 3 mM test compounds were dispensed using Labcyte ECHO dose response module into Greiner 784075 plates (columns 3-12 and 13-22, 10 point 1:4) so that high concentration was 30 uM final. 100 uM of a reference compound (1 uM final high concentration). Backfilling was performed if necessary so that all wells contain 1% DMSO final: add 75 nl DMSO/well into columns 1, 2 and 24 using Labcyte Echo. add 75 nl 1.0 mM staurosporine/well into column 23 using Labcyte Echo (10 uM final) add 4.5 ul enzyme/well using multidrop dispenser add 3 ul substrate/well using multidrop dispenser incubate at 25° C. for 90 min. add 7.5 ul 2× stop buffer read on labchip ez reader II using IKKε. job Raw data files were opened in the Caliper LabChip Reviewer program (Version 3.0.265.0 SP2) and peak assignments were adjusted to reflect “substrate first” with the software's post-run analysis options. A spline-fit baseline was applied using the software's analysis algorithm.

Sequence of IKKe (Q14164 whole entry, species assumed): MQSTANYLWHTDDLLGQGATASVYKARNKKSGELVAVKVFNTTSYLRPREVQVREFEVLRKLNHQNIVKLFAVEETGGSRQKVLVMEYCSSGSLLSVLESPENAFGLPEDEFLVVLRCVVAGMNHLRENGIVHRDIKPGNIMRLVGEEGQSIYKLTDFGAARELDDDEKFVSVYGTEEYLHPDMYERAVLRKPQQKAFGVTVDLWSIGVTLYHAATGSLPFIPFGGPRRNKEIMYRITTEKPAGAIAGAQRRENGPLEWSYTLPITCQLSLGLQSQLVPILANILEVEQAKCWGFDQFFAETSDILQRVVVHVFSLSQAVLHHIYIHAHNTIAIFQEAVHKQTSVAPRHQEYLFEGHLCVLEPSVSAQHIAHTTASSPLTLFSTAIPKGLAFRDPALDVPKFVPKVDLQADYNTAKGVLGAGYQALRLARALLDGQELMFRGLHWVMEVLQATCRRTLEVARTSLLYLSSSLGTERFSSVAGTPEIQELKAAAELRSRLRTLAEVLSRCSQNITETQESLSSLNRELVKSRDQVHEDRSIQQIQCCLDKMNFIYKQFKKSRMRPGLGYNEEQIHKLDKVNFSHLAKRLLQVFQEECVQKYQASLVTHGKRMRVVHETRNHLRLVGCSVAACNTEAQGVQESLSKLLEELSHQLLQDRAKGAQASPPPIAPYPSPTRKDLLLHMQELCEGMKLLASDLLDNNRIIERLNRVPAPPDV
Sequence of TBK1 (Q9UHD2 whole entry, species assumed): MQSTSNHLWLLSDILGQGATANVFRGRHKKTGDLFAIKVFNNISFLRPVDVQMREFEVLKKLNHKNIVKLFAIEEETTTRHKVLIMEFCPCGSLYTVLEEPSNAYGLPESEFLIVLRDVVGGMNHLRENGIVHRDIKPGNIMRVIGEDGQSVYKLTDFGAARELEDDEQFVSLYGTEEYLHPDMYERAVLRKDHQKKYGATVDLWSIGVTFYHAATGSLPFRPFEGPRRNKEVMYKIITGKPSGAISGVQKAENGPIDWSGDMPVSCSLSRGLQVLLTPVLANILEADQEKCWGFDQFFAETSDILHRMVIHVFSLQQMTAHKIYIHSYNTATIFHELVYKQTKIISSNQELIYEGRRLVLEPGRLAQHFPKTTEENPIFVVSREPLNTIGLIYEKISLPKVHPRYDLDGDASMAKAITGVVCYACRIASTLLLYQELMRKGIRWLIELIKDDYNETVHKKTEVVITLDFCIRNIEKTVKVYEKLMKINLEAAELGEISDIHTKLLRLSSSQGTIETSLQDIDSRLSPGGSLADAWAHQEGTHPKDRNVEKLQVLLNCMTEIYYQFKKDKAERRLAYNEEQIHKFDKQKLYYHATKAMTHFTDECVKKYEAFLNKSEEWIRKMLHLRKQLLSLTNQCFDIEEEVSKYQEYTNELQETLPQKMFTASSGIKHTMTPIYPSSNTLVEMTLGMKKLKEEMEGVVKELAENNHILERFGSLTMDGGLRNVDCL

Row | SMILES | pIC50 (TBK1) | pIC50 (IKKe)
1 | COc1nc(Nc2cc(-c3ccc(OC4CN(C)C4)c(C#N)c3)ncn2)ccc1C(=O)N(C)C [Example 37, 6-[(6-[3-cyano-4-[(1-methylazetidin-3-yl)oxy]phenyl]pyrimidin-4-yl)amino]-2-methoxy-N,N-dimethylpyridine-3-carboxamide] | 6.00 to 7.00 | 6.00 to 7.00
2 | COc1nc(Nc2cc(-c3ccc(OC4CN(C)C4)c(C#N)c3)ncn2)ccc1N1CCN(C)CC1 [Example 38, 5-(6-[[6-methoxy-5-(4-methylpiperazin-1-yl)pyridin-2-yl]amino]pyrimidin-4-yl)-2-[(1-methylazetidin-3-yl)oxy]benzonitrile] | > 7.00 | > 7.00
3 | COc1nc(Nc2cc(-c3ccc(OC4CCN(C)C4)c(C#N)c3)ncn2)ccc1C(=O)N(C)C (centres unmarked) [Example 39, 6-[(6-[3-cyano-4-[(1-methylpyrrolidin-3-yl)oxy]phenyl]pyrimidin-4-yl)amino]-2-methoxy-N,N-dimethylpyridine-3-carboxamide] | 6.00 to 7.00 | 6.00 to 7.00
4 | CN1CCN(c2ccc(Nc3cc(-c4ccc(OC5CCN(C)C5)c(C#N)c4)ncn3)nc2)CC1 (centres unmarked) [Example 40, 5-(6-[[5-(4-methylpiperazin-1-yl)pyridin-2-yl]amino]pyrimidin-4-yl)-2-[(1-methylpyrrolidin-3-yl)oxy]benzonitrile] | 6.00 to 7.00 | 6.00 to 7.00
5 | COc1nc(Nc2cc(-c3ccc(OC4CCN(C)CC4)c(C#N)c3)ncn2)ccc1C(=O)N(C)C [Example 41, 6-[(6-[3-cyano-4-[(1-methylpiperidin-4-yl)oxy]phenyl]pyrimidin-4-yl)amino]-2-methoxy-N,N-dimethylpyridine-3-carboxamide] | 5.30 to 6.00 | 5.30 to 6.00
6 | COc1nc(Nc2cc(-c3ccc(OC4CCN(C(=O)CO)CC4)c(C#N)c3)ncn2)ccc1C(=O)N(C)C [Example 42, 6-[[6-(3-cyano-4-[[1-(2-hydroxyacetyl)piperidin-4-yl]oxy]phenyl)pyrimidin-4-yl]amino]-2-methoxy-N,N-dimethylpyridine-3-carboxamide] | > 7.00 | > 7.00
7 | COc1nc(Nc2cc(-c3ccc(OC4CCN(C(=O)c5cnco5)CC4)c(C#N)c3)ncn2)ccc1C(=O)N(C)C [Example 43, 6-([6-[3-cyano-4-([1-[(1,3-oxazol-5-yl)carbonyl]piperidin-4-yl]oxy)phenyl]pyrimidin-4-yl]amino)-2-methoxy-N,N-dimethylpyridine-3-carboxamide] | > 7.00 | > 7.00
8 | COc1nc(Nc2cc(-c3ccc(OC4CCN(C(=O)c5cocn5)CC4)c(C#N)c3)ncn2)ccc1C(=O)N(C)C [Example 44, 6-([6-[3-cyano-4-([1-[(1,3-oxazol-4-yl)carbonyl]piperidin-4-yl]oxy)phenyl]pyrimidin-4-yl]amino)-2-methoxy-N,N-dimethylpyridine-3-carboxamide] | > 7.00 | > 7.00
9 | COc1nc(Nc2cc(-c3ccc(OC4CCN(C(=O)c5n[nH]c(C)n5)CC4)c(C#N)c3)ncn2)ccc1C(=O)N(C)C [Example 45, 6-([6-[3-cyano-4-([1-[(5-methyl-1H-1,2,4-triazol-3-yl)carbonyl]piperidin-4-yl]oxy)phenyl]pyrimidin-4-yl]amino)-2-methoxy-N,N-dimethylpyridine-3-carboxamide] | > 7.00 | > 7.00
10 | COc1nc(Nc2cc(-c3ccc(O[C@H]4CCNC[C@H]4F)c(C#N)c3)ncn2)ccc1C(=O)N(C)C [Example 46, 6-[[6-(3-cyano-4-[[(3R,4S)-3-fluoropiperidin-4-yl]oxy]phenyl)pyrimidin-4-yl]amino]-2-methoxy-N,N-dimethylpyridine-3-carboxamide] | 6.00 to 7.00 | 6.00 to 7.00
11 | COc1nc(Nc2cc(-c3ccc(O[C@H]4CCN(C(=O)CO)C[C@H]4F)c(C#N)c3)ncn2)ccc1C(=O)N(C)C [Example 47, 6-[[6-(3-cyano-4-[[(3R,4S)-3-fluoro-1-(2-hydroxyacetyl)piperidin-4-yl]oxy]phenyl)pyrimidin-4-yl]amino]-2-methoxy-N,N-dimethylpyridine-3-carboxamide] | > 7.00 | > 7.00
12 | COc1nc(Nc2cc(-c3ccc(OC4CCN(C)CC4(F)F)c(C#N)c3)ncn2)ccc1C(=O)N(C)C (centres unmarked) [Example 48, 6-[(6-[3-cyano-4-[(3,3-difluoro-1-methylpiperidin-4-yl)oxy]phenyl]pyrimidin-4-yl)amino]-2-methoxy-N,N-dimethylpyridine-3-carboxamide] | > 7.00 | > 7.00
13 | COc1nc(Nc2cc(-c3ccc(OC4CCN(C(=O)CO)CC4(F)F)c(C#N)c3)ncn2)ccc1C(=O)N(C)C (centres unmarked) [Example 49, 6-[[6-(3-cyano-4-[[3,3-difluoro-1-(2-hydroxyacetyl)piperidin-4-yl]oxy]phenyl)pyrimidin-4-yl]amino]-2-methoxy-N,N-dimethylpyridine-3-carboxamide] | > 7.00 | > 7.00
14 | COc1nc(Nc2cc(-c3ccc(OC4CCNCC4)c(C#N)c3)ncn2)ccc1N1CCN(C)CC1 [Example 50, 5-(6-[[6-methoxy-5-(4-methylpiperazin-1-yl)pyridin-2-yl]amino]pyrimidin-4-yl)-2-(piperidin-4-yloxy)benzonitrile] | > 7.00 | > 7.00
15 | COc1nc(Nc2cc(-c3ccc(OC4CCN(C)CC4)c(C#N)c3)ncn2)ccc1N1CCN(C)CC1 [Example 51, 5-(6-[[6-methoxy-5-(4-methylpiperazin-1-yl)pyridin-2-yl]amino]pyrimidin-4-yl)-2-[(1-methylpiperidin-4-yl)oxy]benzonitrile] | 6.00 to 7.00 | 6.00 to 7.00
16 | COc1nc(Nc2cc(-c3ccc(OC4CCN(C(=O)CO)CC4)c(C#N)c3)ncn2)ccc1N1CCN(C)CC1 [Example 52, 2-[[1-(2-hydroxyacetyl)piperidin-4-yl]oxy]-5-(6-[[6-methoxy-5-(4-methylpiperazin-1-yl)pyridin-2-yl]amino]pyrimidin-4-yl)benzonitrile] | > 7.00 | > 7.00
17 | COc1nc(Nc2cc(-c3ccc(OC4CCN(C(=O)C(C)O)CC4)c(C#N)c3)ncn2)ccc1N1CCN(C)CC1 (centres unmarked) [Example 53, 2-[[1-(2-hydroxypropanoyl)piperidin-4-yl]oxy]-5-(6-[[6-methoxy-5-(4-methylpiperazin-1-yl)pyridin-2-yl]amino]pyrimidin-4-yl)benzonitrile] | > 7.00 | > 7.00
18 | COc1nc(Nc2cc(-c3ccc(OC4CCN(C(=O)c5cocn5)CC4)c(C#N)c3)ncn2)ccc1N1CCN(C)CC1 [Example 54, 5-(6-[[6-methoxy-5-(4-methylpiperazin-1-yl)pyridin-2-yl]amino]pyrimidin-4-yl)-2-([1-[(1,3-oxazol-4-yl)carbonyl]piperidin-4-yl]oxy)benzonitrile] | > 7.00 | > 7.00
19 | COc1nc(Nc2cc(-c3ccc(OC4CCN(C(=O)c5n[nH]c(C)n5)CC4)c(C#N)c3)ncn2)ccc1N1CCN(C)CC1 [Example 55, 5-(6-[[6-methoxy-5-(4-methylpiperazin-1-yl)pyridin-2-yl]amino]pyrimidin-4-yl)-2-([1-[(5-methyl-1H-1,2,4-triazol-3-yl)carbonyl]piperidin-4-yl]oxy)benzonitrile] | > 7.00 | > 7.00

Reference: US11440899B2, “Pyrimidine TBK/IKKe inhibitor compounds and uses thereof” (Merck Patent GmbH, priority 2017, dated 2022)
